Each compound was assayed against T1, recombinant E. coli LpxA (Escherichia coli, UniProt P0A722) (assay: LpxA assay: acyl-UDP-GlcNAc formation from UDP-[3H]GlcNAc, TLC). Conditions: 5 mM compound; FIG. 8.
T1 construct: 6xHis (C); made in house; host or cells: E. coli BL21 (pET23b)
Format: biochemical
Description: The lpxA gene was amplified from an E. coli genomic library and inserted into a pET23b vector using standard recombinant DNA methodology. The 5′ oligonucleotide for amplification of the LpxA open reading frame was 5′-[…]-3′ (SEQ ID NO. 1) and contains a BamHI restriction enzyme site upstream of the LpxA ATG start codon and the 3′ oligonucleotide was 5′-[…]-3′ (SEQ ID NO. 2) and contains a XhoI restriction enzyme site downstream of the final codon of the LpxA open reading frame. Primers were custom synthesized. The primers were designed such that digestion of the amplification product would result in addition of a C-terminal 6×-His tag in frame with the LpxA open reading frame. Specifically, E. coli genomic DNA was isolated and an amplification reaction was carried out as follows: 33 μl water, 5 μl 10× reaction buffer, 1.5 μl of 50 mM magnesium sulfate, 3 μl of 10 mM dNTPs, 3 μl of a 50 μM solution of the 5′ LpxA primer, 3 μl of a 50 μM solution of the 3′ LpxA primer, 0.5 μl of E. coli genomic DNA solution, and 1 μl of polymerase. The reaction conditions were as follows: 94° C. for 2 minutes; followed by 30 cycles of 94° C. for 30 seconds, 50° C. for 30 seconds, 68° C. for 1.5 minutes, followed by an extension at 68° C. for 7 minutes. The resulting LpxA product was separated from other DNA on a 0.8% agarose gel and isolated from the gel. The LpxA open reading frame was cloned into a topoisomerase I-activated vector and transformed into E. coli. […] The newly synthesized plasmid containing the BamHI- and XhoI-flanked LpxA open reading frame and plasmid pET23a were digested with BamHI and XhoI at 37° C. for 2 hours, DNA was separated by agarose gel electrophoresis, isolated from the gel, and ligated. Ligation reactions were transformed into chemically competent E. coli and plasmid DNA was isolated. Restriction mapping was performed to determine which plasmids contained the LpxA open reading frame. To remove the T7 epitope coding sequence from the 5′end of the LpxA open reading frame, the pET23a plasmid containing the LpxA open reading frame was digested with the restriction enzymes BamHI and XhoI and a pET23b plasmid was digested with BglII and XhoI, DNA was separated by agarose gel electrophoresis, isolated from the gel, and ligated. Ligation reactions were transformed into chemically competent E. coli and plasmid DNA was isolated. Restriction mapping was performed to assess plasmids containing the LpxA open reading frame.
A 5 ml culture of E. Coli BL21 cells expressing the LpxA-6×His plasmid was grown overnight at 37° C. in LB medium containing 50 μg/ml ampicillin and 34 μg/ml chloramphenicol, then subcultured into 500 ml of the same medium and grown at 37° C. until A600=0.6. LpxA expression was induced by addition of 0.5 mM IPTG for three hours. The cells were centrifuged at 7 000×g for 10 minutes at 4° C. and lysed using a mild, nonionic detergent. The soluble fraction containing LpxA was added to 1 ml of nickel affinity resin in a 15 ml Falcon tube; the resin was washed extensively with extraction/wash buffer (50 mM Na-phosphate (pH 7.0) and 300 mM NaCl) prior to use. This mixture was incubated on a rotating platform at low speed for 20 minutes at room temperature. The resin was centrifuged at 1000 rpm in a bench top centrifuge for 2 min, washed twice (10 min each) with 10 ml of extraction/wash buffer, resuspended in 10 ml of extraction/wash buffer, and transferred to a 10 ml polypropylene disposable protein purification column. The column was eluted with 5 ml of 50 mM Na-phosphate (pH 7.0) containing 300 mM NaCl and 150 mM imidazole, collected in 1 ml fractions. The eluate was analysed by SDS-PAGE and was visualised using a protein stain (FIG. 7 inset).
Recombinant Vibrio harveyi acyl carrier protein was prepared from a GST fusion protein as described previously (Flaman et al., 2001). […]

T1 sequence (P0A722 whole entry): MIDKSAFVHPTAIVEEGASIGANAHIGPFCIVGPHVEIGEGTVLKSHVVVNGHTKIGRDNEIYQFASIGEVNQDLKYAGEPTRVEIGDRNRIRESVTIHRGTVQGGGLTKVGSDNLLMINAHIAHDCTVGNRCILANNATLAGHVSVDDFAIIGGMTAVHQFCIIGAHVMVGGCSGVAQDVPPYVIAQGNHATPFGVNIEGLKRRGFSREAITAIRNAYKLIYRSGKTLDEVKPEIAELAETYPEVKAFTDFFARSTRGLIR

| Structure (SMILES) | inhibition at 5000 µM [%] |
| --- | --- |
| O=C(O)c1cc(-c2nnn[nH]2)c(-c2cccc3ccccc23)s1 [DNM-121H, 5-(Naphthalen-1-yl)-4-(1H-tetrazol-5-yl)thiophene-2-carboxylic acid] | > 70 |
| COc1cccc(-c2sc(C(=O)O)cc2-c2nnnn2C)c1 [DNM-122D, 5-(3-Methoxyphenyl)-4-(1-methyl-1H-tetrazol-5-yl)thiophene-2-carboxylic acid] | > 70 |
| Cn1nnnc1-c1cc(C(=O)O)sc1-c1ccc(-c2ccccc2)cc1 [DNM-122G, 5-(4-biphenylyl)-4-(1-methyl-1H-tetrazol-5-yl)thiophene-2-carboxylic acid] | > 80 |
| Cn1nnnc1-c1cc(C(=O)O)sc1-c1cccc2ccccc12 [DNM-122H, 5-(Naphthalen-1-yl)-4-(1-methyl-1H-tetrazol-5-yl)thiophene-2-carboxylic acid] | > 80 |
| Cn1nnc(-c2cc(C(=O)O)sc2-c2cccc(F)c2)n1 [DNM-123A, 5-(3-Fluorophenyl)-4-(2-methyl-2H-tetrazol-5-yl)thiophene-2-carboxylic acid] | > 70 |
| COc1cccc(-c2sc(C(=O)O)cc2-c2nnn(C)n2)c1 [DNM-123D, 5-(3-Methoxyphenyl)-4-(2-methyl-2H-tetrazol-5-yl)thiophene-2-carboxylic acid] | > 80 |
| COc1ccc(-c2sc(C(=O)O)cc2-c2nnn(C)n2)cc1 [DNM-123E, 5-(4-Methoxyphenyl)-4-(2-methyl-2H-tetrazol-5-yl)thiophene-2-carboxylic acid] | > 70 |
| COc1ccccc1-c1sc(C(=O)O)cc1-c1nnn(C)n1 [DNM-123F, 5-(2-Methoxyphenyl)-4-(2-Methyl-2H-tetrazol-5-yl)thiophene-2-carboxylic acid] | > 80 |
| Cn1nnc(-c2cc(C(=O)O)sc2-c2ccc(-c3ccccc3)cc2)n1 [DNM-123G, 5-(4-biphenylyl)-4-(2-methyl-2H-tetrazol-5-yl)thiophene-2-carboxylic acid] | > 80 |
| Cn1nnc(-c2cc(C(=O)O)sc2-c2cccc3ccccc23)n1 [DNM-123H, 5-(Naphthalen-1-yl)-4-(2-methyl-2H-tetrazol-5-yl)thiophene-2-carboxylic acid] | > 80 |
| Cn1nnc(-c2cc(C(=O)O)sc2-c2ccccn2)n1 [DNM-123I, 5-(Pyridin-2-yl)-4-(2-methyl-2H-tetrazol-5-yl)thiophene-2-carboxylic acid] | > 70 |
| CCOC(=O)c1cc(-c2nnn[nH]2)c(-c2cccc(F)c2)s1 [DNM-124A, Ethyl 5-(3-fluorophenyl)-4-(1H-tetrazol-5-yl)thiophene-2-carboxylate] | > 80 |
| CCOC(=O)c1cc(-c2nnn[nH]2)c(-c2ccccn2)s1 [DNM-124I, Ethyl 5-(pyridin-2-yl)-4-(1H-tetrazol-5-yl)thiophene-2-carboxylate] | > 80 |
| Oc1cccc(-c2cc(-c3nnn[nH]3)c(-c3cccc(O)c3)s2)c1 [DNM-131A, 5-(2,5-Bis(3-hydroxyphenyl)thiophen-3-yl)-1H-tetrazole] | > 80 |
| Oc1ccc(-c2cc(-c3nnn[nH]3)c(-c3ccc(O)cc3)s2)cc1 [DNM-131C, 5-(2,5-Bis(4-hydroxyphenyl)thiophen-3-yl)-1H-tetrazole] | > 80 |
| O=C(O)c1ccc(-c2cc(-c3nnn[nH]3)c(-c3ccc(C(=O)O)cc3)s2)cc1 [DNM-131E, 5-(2,5-Bis(4-carboxyphenyl)thiophen-3-yl)-1H-tetrazole] | > 80 |
| NC(=O)c1ccc(-c2cc(-c3nnn[nH]3)c(-c3ccc(C(N)=O)cc3)s2)cc1 [DNM-131F, 5-(2,5-Bis(4-carbamoylphenyl)thiophen-3-yl)-1H-tetrazole] | > 80 |
| NC(=O)c1cccc(-c2cc(-c3nnn[nH]3)c(-c3cccc(C(N)=O)c3)s2)c1 [DNM-131H, 5-(2,5-Bis(3-carbamoylphenyl)thiophen-3-yl)-1H-tetrazole] | > 70 |

Source: patent US8835476B2, “Synthesis of novel antimicrobials” (priority 2005, dated 2014)
